In paper PMC8512562, “Semisynthetic Derivatives of Selected Amaryllidaceae Alkaloids as a New Class of Antimycobacterial Agents” (Molecules, 2021):
In brackets after ≈: the same amount, converted by molar mass. Like-named read-outs stand apart in the source and are kept apart here.

Legend:
[1] = system: Mycobacterium tuberculosis H37Ra; experiment: Antimycobacterial screening (microdilution broth, resazurin) against M. tuberculosis H37Ra; format: cell-based; details: for MIC: Mycobacterium tuberculosis
[2] = system: Mycobacterium smegmatis DSM 43465 (ATCC 607); experiment: Antimycobacterial screening (microdilution broth, resazurin) against M. smegmatis; format: cell-based; details: for MIC: Mycolicibacterium smegmatis, read-out: MIC M. smegmatis
[3] = system: Mycobacterium aurum DSM 43999 (ATCC 23366); experiment: Antimycobacterial screening (microdilution broth, resazurin) against M. aurum; format: cell-based; details: for MIC: Mycolicibacterium aurum, 72 h, read-out: MIC M. aurum
HepG2 cells = experiment: cells; format: cell-based, Human; details: for IC50: Homo sapiens, HepG2, MTT, 24 h incubation
[4] = system: M. tuberculosis H37Ra, M. aurum and M. smegmatis; experiment: Antimycobacterial screening, MICs stated over all studied strains; format: cell-based, Mycobacterium; details: read-out: MICs against all studied strains
[5] = H37RA, read-out: MIC Mtb H37Ra (µM)
[6] = M. tuberculosis H37Ra, resazurin added after 120 h, read-out: MIC Mtb H37Ra
[7] = range over M. tuberculosis H37Ra, M. aurum, M. smegmatis
[8] = H37RA, 120 h, read-out: MIC Mtb H37Ra
[9] = range of MIC of the standards in the assay

SMILES	MIC [1, 5] [µM]	MIC [1, 6] [µg/mL]	MIC ([2]; 48 h) [µg/mL]	MIC [3] [µg/mL]	SI (selectivity index) (HepG2 cells)	IC50 (HepG2 cells) [µM]	MIC [4, 7] [µg/mL]	MIC ([4]; range over the studied strains) [µM]	MIC [1, 8] [µg/mL]	MIC values for standards, range, M. tuberculosis [1, 9] [µg/mL]	MIC ([2]; resazurin added after 48 h) [µg/mL]	MIC values for standards, range, M. smegmatis [2, 9] [µg/mL]	MIC values for standards, range, M. aurum [3, 9] [µg/mL]
COc1ccc2c3c1O[C@H]1C[C@@H](OC(=O)c4ccc5ccccc5c4)C=C[C@@]31CCN(C)C2 [1r, 6-O-(2-naphthoyl)galanthamine]	4.1	1.98	7.81 (≈ 17.7 µM)	3.91 (≈ 8.86 µM)	5.17	21.2 ± 3.8	1.98 to 7.81	–	–	–	–	–	–
COc1cc2c(cc1OC)[C@@]13C=C[C@@H](OC(=O)c4cc(C)cc(C)c4)C[C@@H]1N(CC3)C2 [5a, 3-O-(3,5-dimethylbenzoyl)maritidine]	8.6	3.91	15.6 (≈ 37.2 µM)	15.6 (≈ 37.2 µM)	2.17	18.7 ± 2.7	3.91 to 15.6	–	–	–	–	–	–
COc1ccc2c3c1O[C@H]1C[C@@H](OC(=O)c4ccc(C(C)(C)C)cc4)C=C[C@@]31CCN(C)C2 [1h, 6-O-(4-tert-butylbenzoyl)galanthamine]	6.9	3.12	7.81 (≈ 17.4 µM)	7.81 (≈ 17.4 µM)	2.43	16.8 ± 4.2	3.12 to 7.81	–	–	–	–	–	–
COc1ccc2c3c1O[C@H]1C[C@@H](OC(=O)c4c(C)cc(C)cc4C)C=C[C@@]31CCN(C)C2 [1g, 6-O-(2,4,6-trimethylbenzoyl)galanthamine]	18	7.81	31.2 (≈ 72.1 µM)	15.6 (≈ 36 µM)	0.77	13.9 ± 0.8	–	–	–	–	–	–	–
CCCCc1ccc(C(=O)O[C@H]2C=C[C@@]34CCN(C)Cc5ccc(OC)c(c53)O[C@H]4C2)cc1 [1i, 6-O-(4-butylbenzoyl)galanthamine]	3.5	1.56	7.81 (≈ 17.4 µM)	1.98 (≈ 4.42 µM)	4.20	14.7 ± 1.6	1.56 to 7.81	–	–	–	–	–	–
COC1CC2C(=CC1OC(=O)c1cccc3ccccc13)C1CN2Cc2cc3c(cc21)OCO3 (centres unmarked) [3f, 2-O-(1-naphthoyl)-3-O-methylpancracine]	7.9	3.91	3.91 (≈ 8.58 µM)	3.91 (≈ 8.58 µM)	3.51	27.7 ± 4.7	3.91	–	–	–	–	–	–
COC1CC2C(=CC1OC(=O)c1ccc(C(C)(C)C)cc1)C1CN2Cc2cc3c(cc21)OCO3 (centres unmarked) [3c, 2-O-(4-tert-butylbenzoyl)-3-O-methylpancracine]	7.9	3.91	7.81 (≈ 16.9 µM)	7.81 (≈ 16.9 µM)	3.08	24.3 ± 2.4	–	–	–	–	–	–	–
O=C(O[C@@H]1C=C[C@]23CCN(Cc4cc5c(cc42)OCO5)[C@H]3C1)c1cccc2ccccc12 [4a, 3-O-(1-naphthoyl)vittatine]	8.5	3.91	7.81 (≈ 18.4 µM)	3.91 (≈ 9.19 µM)	2.79	23.7 ± 2.2	3.91 to 7.81	–	–	–	–	–	–
COc1cc2c(cc1OC)[C@@]13C=C[C@@H](OC(=O)c4cccc5ccccc45)C[C@@H]1N(CC3)C2 [5b, 3-O-(1-naphthoyl)maritidine]	16.3	7.81	15.6 (≈ 35.4 µM)	7.81 (≈ 17.7 µM)	1.03	16.8 ± 7.1	3.91 to 15.6	–	–	–	–	–	–
CCCCc1ccc(C(=O)OC2C=C3C4CN(Cc5cc6c(cc54)OCO6)C3CC2OC)cc1 (centres unmarked) [3d, 2-O-(4-butylbenzoyl)-3-O-methylpancracine]	7.9	3.91	7.81 (≈ 16.9 µM)	7.81 (≈ 16.9 µM)	2.59	20.5 ± 0.7	–	–	–	–	–	–	–
COc1ccc2c3c1O[C@H]1C[C@@H](OC(=O)c4cccc5ccccc45)C=C[C@@]31CCN(C)C2 [1q, 6-O-(1-naphthoyl)galanthamine]	13.1	6.25	7.81 (≈ 17.7 µM)	7.81 (≈ 17.7 µM)	3.21	42.1 ± 4.1	6.25 to 7.81	–	–	–	–	–	–
COc1ccc2c3c1O[C@H]1C[C@@H](OC(=O)c4cccc(C)c4C)C=C[C@@]31CCN(C)C2 [1e, 6-O-(2,3-dimethylbenzoyl)galanthamine]	17.1	7.81	31.2 (≈ 74.5 µM)	15.6 (≈ 37.2 µM)	1.05	17.9 ± 2.6	–	–	–	–	–	–	–
COC1CC2C(=CC1OC(=O)c1cc(C)cc(C)c1)C1CN2Cc2cc3c(cc21)OCO3 (centres unmarked) [3a, 2-O-(3,5-dimethylbenzoyl)-3-O-methylpancracine]	16.6	7.81	15.6 (≈ 36 µM)	7.81 (≈ 18 µM)	2.45	40.6 ± 7.6	–	–	–	–	–	–	–
O=C(O[C@@H]1C=C[C@]23CCN(Cc4cc5c(cc42)OCO5)[C@H]3C1)c1ccc2ccccc2c1 [4b, 3-O-(2-naphthoyl)vittatine]	8.5	3.91	7.81 (≈ 18.4 µM)	3.91 (≈ 9.19 µM)	2.17	18.5 ± 2	3.91 to 7.81	–	–	–	–	–	–
CCOc1cc(OCC)cc(C(=O)O[C@H]2C=C[C@@]34CCN(C)Cc5ccc(OC)c(c53)O[C@H]4C2)c1 [1p, 6-O-(3,5-diethoxybenzoyl)galanthamine]	7.6	3.91	15.6 (≈ 32.6 µM)	7.81 (≈ 16.3 µM)	2.64	20.1 ± 2.1	3.91 to 15.6	7.6 to 30.2	–	–	–	–	–
CCOc1cc(OCC)cc(C(=O)OC2C=C3C4CN(Cc5cc6c(cc54)OCO6)C3CC2OC)c1 (centres unmarked) [3e, 2-O-(3,5-diethoxybenzoyl)-3-O-methylpancracine]	7.8	–	15.6 (≈ 31.7 µM)	7.81 (≈ 15.8 µM)	–	24.9 ± 1.7	–	–	3.91	–	–	–	–
COC1CC2C(=CC1OC(=O)c1c(C)cc(C)cc1C)C1CN2Cc2cc3c(cc21)OCO3 (centres unmarked) [3b, 2-O-(2,4,6-trimethylbenzoyl)-3-O-methylpancracine]	16.1	7.81	15.6 (≈ 34.9 µM)	7.81 (≈ 17.5 µM)	1.94	31.2 ± 5.4	–	–	–	–	–	–	–
COc1ccc2c3c1O[C@H]1C[C@@H](OC(=O)c4cc(C)cc(C)c4)C=C[C@@]31CCN(C)C2 [1f, 6-O-(3,5-dimethylbenzoyl)galanthamine]	17.1	7.81	7.81 (≈ 18.6 µM)	7.81 (≈ 18.6 µM)	1.03	17.6 ± 4.7	–	–	–	–	–	–	–
NNC(=O)c1ccncc1 [isoniazid, reference compound]	1.82	–	–	3.91 (≈ 28.5 µM)	–	–	–	–	0.25	0.125 to 0.25	31.2 (≈ 228 µM)	7.81 to 15.625	1.95 to 3.91
